Measurements taken from patent US20240247030A1, “TARGETED DELIVERY OF TERTIARY AMINE-CONTAINING DRUG SUBSTANCES” (Seagen Inc., priority 2014, published 2024).
≈ marks a conversion by molar mass, not a printed value. Where two headings read alike, the source gives them in different places. *1 amine or outer side, *2 acyl side, *3 side chain or, on linkers, in order; H or OH if unused. Where a SMILES comes first, the peptide text is derived from it. [ ]: non-standard residue; d: D form. The star is where a group is joined. Dolaproine = CO[C@@H]([C@@H]1CCCN1)[C@@H](C)C(=O)O; Hexanoyl(6-maleimido) = O=C1C=CC(=O)N1CCCCCC(=O)*; Dil = CC[C@H](C)[C@H](NC)[C@@H](CC(=O)O)OC; PABC = O=C(OCc1ccc(N[*:1])cc1)[*:2]; Cit = NC(=O)NCCC[C@H](N)C(=O)O; NMeV = CN[C@H](C(=O)O)C(C)C

Key:
[1] = Pharmacokinetics of radiolabeled antibody or ADC; format: in vivo, rat; conditions: 1 mg/kg i.v., radiolabeled non-targeting ADC
Procedure: PK test articles were radiolabeled using the following procedure.
Each test article was dosed once in replicate animals.

[2] = test system: Hep3B hepatocellular carcinoma cells; experiment: In vitro cytotoxicity (CellTiter-Glo, 96 h); format: cell-based; conditions: Table 10; cAC10 conjugate, 8 drug units/Ab; antigen-negative cells
Procedure: (§1) In vitro assays. Cells cultured in log-phase growth were seeded for 24 h in 96-well plates containing 150 μL RPMI 1640 supplemented with 20% FBS. Serial dilutions of antibody-drug conjugates in cell culture media were prepared at 4× working concentrations; 50 μL of each dilution was added to the 96-well plates. Following addition of ADC, cells were incubated with test articles for 4 d at 37° C. After 96 h, growth inhibition was assessed by CellTiter-Glo™ (Promega, Madison, W1) and luminescence was measured on a plate reader. The IC50 value, determined in triplicate, is defined here as the concentration that results in a 50% reduction in cell growth relative to untreated controls.

L428 MDR+ HL cells = experiment: In vitro cytotoxicity (CellTiter-Glo, 96 h); format: cell-based; conditions: for IC50: Homo sapiens, L-428, 96 h, read-out: IC50, L428, MDR+ HL, Table 6, free drug, 96 hours
DEL/BVR MDR+ ALCL cells = format: cell-based
Procedure: as §1

[3] = test system: L540cy Hodgkin lymphoma cells; experiment: In vitro cytotoxicity (CellTiter-Glo, 96 h); format: cell-based; conditions: for IC50: L540cy, read-out: IC50, L540cy, HL, Table 6, free drug, 96 hours
Karpas299 ALCL cells = experiment: In vitro cytotoxicity (CellTiter-Glo, 96 h); format: cell-based; conditions: for IC50: Homo sapiens, KARPAS-299, 96 h, read-out: IC50, Karpas299, ALCL, Table 6, free drug, 96 hours
Procedure: as §1

DEL ALCL cells = format: cell-based
HL60/RV MDR+ AML cells = experiment: In vitro cytotoxicity (CellTiter-Glo, 96 h); format: cell-based; conditions: for IC50: Homo sapiens, HL-60, 96 h, read-out: IC50, HL60/RV, MDR+ AML, Table 6, free drug, 96 hours
Procedure: as §1

HL60 AML cells = experiment: cells; format: cell-based; conditions: for IC50: Homo sapiens, HL-60, 96 h, read-out: IC50, HL60, AML, Table 6, free drug, 96 hours
Procedure: as §1

panel of cell lines = experiment: In vitro cytotoxicity, statements across a panel of cell lines; format: cell-based
Procedure: as §1

[4] = Table 10, cAC10 conjugate, 8 drug units/Ab
[5] = Table 7, cAC10 conjugate of the Drug-Linker, 8 D+/Ab, 96 h
[6] = Table 11, cAC10 conjugate, 8-drugs/mAb
[7] = Table 15, cOKT-9 conjugate, 8-drugs/Ab

For `CC[C@H](C)[C@@H]([C@@H](CC(=O)N1CCC[C@H]1[C@H](OC)[C@@H](C)C(=O)N[C@H](C)[C@@H](O)c1ccccc1)OC)N(C)C(=O)[C@@H](NC(=O)[C@H](C(C)C)[N+](C)(C)Cc1ccc(O[C@@H]2O[C@H](C(=O)O)[C@@H](O)[C@H](O)[C@H]2O)c(NC(=O)CCNC(=O)[C@H](CN)N2C(=O)C=CC2=O)c1)C(C)C` [Compound 8], the “clearance / exposure profile compared with unconjugated antibody (FIG. 12-14)” value [1] was “PK properties identical to that of unmodified antibody through 7 days”.
With `CC[C@H](C)[C@H](NC(=O)[C@H]1CCCC[N+]1(C)Cc1ccc(NC(=O)[C@H](C)NC(=O)[C@@H](NC(=O)[C@H](CN)N2C(=O)C=CC2=O)C(C)C)cc1)C(=O)N(C)[C@H](C[C@@H](OC(C)=O)c1nc(C(=O)N[C@@H](Cc2ccccc2)C[C@H](C)C(=O)O)cs1)C(C)C` (stereo partly drawn) [Compound 32, (2R)-2-(((2S,3S)-1-(((1R,3R)-1-acetoxy-1-(4-(((2R,4S)-4-carboxy-1-phenylpentan-2-yl)carbamoyl)thiazol-2-yl)-4-methylpentan-3-yl)(methyl)amino)-3-methyl-1-oxopentan-2-yl)carbamoyl)-1-(4-((S)-2-((S)-2-((S)-3-amino-2-(2,5-dioxo-2,5-dihydro-1H-pyrrol-1-yl)propanamido)-3-methylbutanamido)propanamido)benzyl)-1-methylpiperidin-1-ium] the “IC50, Hep3B, CD30- HCC” value [2] was over 1000 ng/mL, the “IC50, L428, MDR+ HL” value (L428 MDR+ HL cells; [4]) was 1 ng/mL and the “IC50, DEL/BVR, MDR+ ALCL” value (DEL/BVR MDR+ ALCL cells; [4]) was 4 ng/mL.
For `CC[C@H](C)[C@H](NC(=O)[C@H]1CCCC[N+]1(C)Cc1ccc(O[C@@H]2O[C@H](C(=O)O)[C@@H](O)[C@H](O)[C@H]2O)c(NC(=O)CCNC(=O)[C@H](CN)N2C(=O)C=CC2=O)c1)C(=O)N(C)[C@H](C[C@@H](OC(C)=O)c1nc(C(=O)N[C@@H](Cc2ccccc2)C[C@H](C)C(=O)O)cs1)C(C)C` (stereo partly drawn) [Compound 104], the “IC50, L540cy, HL” value [3, 5] was 4 ng/mL, the “IC50, Hep3B, CD30- HCC” value [2] was over 1000 ng/mL and the “IC50, Karpas299, ALCL” value (Karpas299 ALCL cells; Table 7, cAC10 (anti-CD30) conjugate of the Drug-Linker, 8 D+/Ab, 96 h) was 0.6 ng/mL. The “IC50, L428, MDR+ HL” value (L428 MDR+ HL cells; [5]) was 0.5 ng/mL, the “IC50, L428, MDR+ HL” value (L428 MDR+ HL cells; [4]) was 0.4 ng/mL and the “IC50, DEL/BVR, MDR+ ALCL” value (DEL/BVR MDR+ ALCL cells; [5]) was 3 ng/mL. The “IC50, DEL/BVR, MDR+ ALCL” value (DEL/BVR MDR+ ALCL cells; [4]) was 4 ng/mL, the “IC50, DEL, ALCL” value (DEL ALCL cells; [5]) was 2 ng/mL and the “IC50, DEL, ALCL” value (DEL ALCL cells; [6]) was 2 ng/mL.
In the case of `CC[C@H](C)[C@H](NC(=O)[C@H]1CCCC[N+]1(C)Cc1ccc(NC(=O)[C@H](CCC(=O)O)NC(=O)[C@@H](NC(=O)[C@H](CN)N2C(=O)C=CC2=O)C(C)C)cc1)C(=O)N(C)[C@H](C[C@@H](OC(C)=O)c1nc(C(=O)N[C@@H](Cc2ccccc2)C[C@H](C)C(=O)O)cs1)C(C)C` (stereo partly drawn) [Compound 113, (2R)-2-(((2S,3S)-1-(((1R,3R)-1-acetoxy-1-(4-(((2R,4S)-4-carboxy-1-phenylpentan-2-yl)carbamoyl)thiazol-2-yl)-4-methylpentan-3-yl)(methyl)amino)-3-methyl-1-oxopentan-2-yl)carbamoyl)-1-(4-((S)-2-((S)-2-((S)-3-amino-2-(2,5-dioxo-2,5-dihydro-1H-pyrrol-1-yl)propanamido)-3-methylbutanamido)-4-carboxybutanamido)benzyl)-1-methylpiperidin-1-ium], the “IC50, Hep3B, CD30- HCC” value [2] is reported as over 1000 ng/mL, the “IC50, L428, MDR+ HL” value (L428 MDR+ HL cells; [4]) is reported as 0.3 ng/mL and the “IC50, DEL/BVR, MDR+ ALCL” value (DEL/BVR MDR+ ALCL cells; [4]) is reported as 2 ng/mL.
`CCCC(=O)O[C@H](C[C@H](C(C)C)N(C)C(=O)[C@@H](NC(=O)[C@H]1CCCCN1C)[C@@H](C)CC)c1nc(C(=O)N[C@@H](Cc2ccccc2)C[C@H](C)C(=O)O)cs1` [Compound 156, (2S,4R)-4-(2-((1R,3R)-1-(butyryloxy)-3-((2S,3S)—N,3-dimethyl-2-((R)-1-methylpiperidine-2-carboxamido)pentanamido)-4-methylpentyl)thiazole-4-carboxamido)-2-methyl-5-phenylpentanoic acid] gave an IC50 ([3]; 96 h) of 0.1 nM, an IC50 (HL60/RV MDR+ AML cells) of 6 nM and an IC50 (Karpas299 ALCL cells) of 0.02 nM. It also gave an IC50 (L428 MDR+ HL cells) of 0.12 nM and an IC50 (HL60 AML cells) of 0.1 nM.
`CC[C@H](C)[C@H](NC(=O)[C@H]1CCCCN1C)C(=O)N(C)[C@H](C[C@@H](OC(=O)C(C)C)c1nc(C(=O)N[C@@H](Cc2ccccc2)C[C@H](C)C(=O)O)cs1)C(C)C` [Compound 157, (2S,4R)-4-(2-((1R,3R)-3-((2S,3S)—N,3-dimethyl-2-((R)-1-methylpiperidine-2-carboxamido)pentanamido)-1-(isobutyryloxy)-4-methylpentyl)thiazole-4-carboxamido)-2-methyl-S-phenylpentanoic acid] showed an IC50 ([3]; 96 h) of 0.04 nM, an IC50 (HL60/RV MDR+ AML cells) of 3 nM and an IC50 (Karpas299 ALCL cells) of 0.011 nM. For the same compound, the IC50 (L428 MDR+ HL cells) was 0.05 nM and the IC50 (HL60 AML cells) was 0.08 nM.
For `CC[C@H](C)[C@H](NC(=O)[C@H]1CCCCN1C)C(=O)N(C)[C@H](C[C@@H](OC(=O)CC(C)(C)C)c1nc(C(=O)N[C@@H](Cc2ccccc2)C[C@H](C)C(=O)O)cs1)C(C)C` [Compound 159, (2S,4R)-4-(2-((1R,3R)-3-((2S,3S)—N,3-dimethyl-2-((R)-1-methylpiperidine-2-carboxamido)pentanamido)-1-((3,3-dimethylbutanoyl)oxy)-4-methylpentyl)thiazole-4-carboxamido)-2-methyl-5-phenylpentanoic acid], the “potency loss relative to tubulysin M” value (panel of cell lines; free drug, across the cell lines of Table 6) was 5-47 fold.
In the case of `CC[C@H](C)[C@H](NC(=O)[C@H]1CCCCN1C(=O)CCCCCN1C(=O)C=CC1=O)C(=O)N(C)[C@H](C[C@@H](OC)c1nc(C(=O)N[C@@H](Cc2ccccc2)C[C@H](C)C(=O)O)cs1)C(C)C` [Compound 172, (2S,4R)-4-(2-((1R,3R)-3-((2S,3S)-2-((R)-1-(6-(2,5-dioxo-2,5-dihydro-1H-pyrrol-1-yl)hexanoyl)piperidine-2-carboxamido)-N,3-dimethylpentanamido)-1-methoxy-4-methylpentyl)thiazole-4-carboxamido)-2-methyl-5-phenylpentanoic acid], the “cytotoxic activity in words, conjugates on CD30+ lymphoma cell lines” value (panel of cell lines; conjugate of the named Drug Linker or named ADC) is reported as “inactive”, the “IC50, L540cy, HL” value [3, 6] is reported as over 1000 ng/mL and the “IC50, Karpas299, ALCL” value (Karpas299 ALCL cells; Table 11, cAC10 conjugate of the Drug-Linker, 8-drugs/mAb) is reported as over 1000 ng/mL. The “IC50, DEL, ALCL” value (DEL ALCL cells; [6]) was over 1000 ng/mL.
With `CC[C@H](C)[C@@H]([C@@H](CC(=O)N1CCC[C@H]1[C@H](OC)[C@@H](C)C(=O)N[C@@H](Cc1ccccc1)C(=O)O)OC)N(C)C(=O)[C@@H](NC(=O)[C@H](C(C)C)N(C)C(=O)OCc1ccc(NC(=O)[C@H](CCCNC(N)=O)NC(=O)[C@@H](NC(=O)CCCCCN2C(=O)C=CC2=O)C(C)C)cc1)C(C)C` [Compound 193, MC-Val-Cit-PABC-MMAF, reference compound] ({Hexanoyl(6-maleimido)}-V[Cit][PABC][NMeV]V[Dil][Dolaproine]F-OH) the “IC50, HL60/RV, MDR+ AML” value (HL60/RV MDR+ AML cells; [7]) was 15 ng/mL (≈ 0.0113 µM) and the “IC50, HL60, AML” value (HL60 AML cells; [7]) was 33 ng/mL (≈ 0.0248 µM).
